Test results as given in US11136299B2, “Benzodiazepine derivatives for use in the treatment of Chlamydiales infections” (priority 2015, dated 2021).

How the values were obtained:
Format in all cases: cell-based
[1] = tested on: Simkania negevensis (Sn) strain Z; assay: Sn infectivity assays (primary and progeny infection) in HeLa229 cells; details: for effect on primary and progeny infection for Simkania / concentration at which maximal inhibition of Sn replication was observed: HeLa cells; for effect on primary and progeny infection for Simkania: GroEL western, inclusion size, inclusion number, microscopy; for concentration at which maximal inhibition of Sn replication was observed: tested at 25 and 75 μM, FIGS. 1-4; for effect on Sn inclusions (transmission electron microscopy): infected HeLa cells versus DMSO-treated control, FIG. 5
Experimental: Simkania negevensis (Sn) strain Z (ATCC VR-1471) was prepared as described previously (Mehlitz A, Karunakaran K, Herweg J A, Krohne G, van de Linde S, Rieck E, Sauer M, Rudel T. The chlamydial organism Sn forms ER vacuole contact sites and inhibits ER-stress. Cell Microbiol 2014; 16(8):1224-1243).
Briefly, HeLa229 cells were grown to 50-70% confluence, were inoculated with Sn in RPMI1640 with 5% FBS, for 6 h at 35° C. in a humidified incubator at 5% CO2. Medium was replaced by infection medium (RPMI1640, Glutamax, 5% FBS, w/o HEPES) and growth was allowed for 3 days. Cells were mechanically detached and bacteria were released using ˜2-5 mm glass beads (Carl Roth). Low speed supernatant (600×g, 4° C. and 5 min) was subjected to high-speed centrifugation (20,000×g, 4° C. and 30 min) to pellet bacteria. Bacteria were washed twice with 5 ml SPG (250 mM sucrose, 50 mM sodium phosphate, 5 mM glutamate, pH 7.4), aliquoted and stored at −80° C. in SPG.
40,000 Hela cells were seeded in 12-well cluster plates, inhibitor-treated and infected as indicated in the respective experiment.
For infectivity assays cells were either fixed and stained at indicated time points (FIG. 2, 4; inclusion formation/primary infection) or bacteria were released via one freeze thaw cycle (−70° C./37° C.) followed by mechanical release through pipetting and transfer to fresh HeLa229 cells (1:25-1:50, progeny/infectivity). Cells were centrifuged for 1 h at 35° C. and medium exchanged to infection medium. Progeny was fixed at day 3 post infection and processed for staining (FIG. 3) or harvested for immunoblotting (FIG. 1). Infectivity assays were imaged on an automated fluorescence microscope Leica DMIR (FIG. 4). Numbers and average sizes of the SCV as well as host cell numbers were determined via GroEL and DAPI staining and images were analysed and quantified using FIJI (ImageJ) and Excel (Microsoft).
In progeny assay, bacteria are first grown in Hela299 cells treated with inhibitors, Retro-1 and VP-184 (25 and 75 μM), and the infectious particles from this primary infection are applied to fresh cells in the absence of inhibitor to measure the bacterial load (GroEL immunoblot) and inclusion formation (immunofluorescence microscopy).

[2] = tested on: Chlamydia trachomatis (Ctr) strain L2/434/Bu; assay: Ctr infectivity assay, progeny infection, cellular protection by GFP microscopy quantification; details: HeLa229 cells, Ctr MOI1, progeny infection fixed 48 hpi, versus solvent-treated cells; for inhibition at 25 µM: Chlamydia trachomatis, HeLa 229, 48 h; for Cellular protection at 75 μM (%): 75 μM compound
From the text: (§1) Chlamydia trachomatis (Ctr). Laboratory-adapted strain L2/434/Bu (ATCC VR902B) was used in assays. Full biological and genetic information is available for this strain including complete genome sequence and defined proteome. This strain has a relatively low particle to infectivity ratio, perform efficient cell infection and has a higher viability than standard genital tract isolates with faster developmental cycle. Culture conditions have been described in (Wang Y., Kahane S., Cutcliffe L. T., Skilton R. J., Lambden P. R., Clarke I. N. Development of a transformation system for Chlamydia trachomatis: Restoration of glycogen biosynthesis by acquisition of a plasmid shuttle vector. PLoS Pathogen, 2011, 7(9): e1002258. doi: 10.1371/journal.ppat.1002258).
Compound application during Chlamydia trachomatis infection. HeLa229 cells were pretreated with Retro-1 and Retro-1 derivatives in concentrations of 25 μM and 75 μM for 1 hour until Chlamydia trachomatis (MOI1) were added to the cells. Compounds were present during infection. To obtain progeny infection, compound treated cells were lysed 24 h post infection (hpi) and lysate was used to infect fresh HeLa 229 cells. Infected cells of progeny infection were fixed with 4% Paraformaldehyde 48 hpi. Cells were stained for DAPI and Chlamydia trachomatis were detected by GFP-signal. Images are representative of n=2 independent experiments. Quantification of infected cells by Chlamydia trachomatis was realized from microscopy images with Image J software (FIG. 7) and cellular protection by compounds at 25 μM and 75 μM was then determined (Table 1) by comparison with solvent-treated cells (control) with the following equation: […]

[3] = tested on: Chlamydia trachomatis (Ctr) strain L2/434/Bu; assay: Ctr infectivity assay, primary and progeny infection, HSP60 immunoblot; details: Retro-1 50-75 μM in the primary infection; HeLa229 cells; FIG. 6
From the text: as §1, with “performs” for “perform”
Compound application during Ctr infection. HeLa229 cells were pretreated with Retro-1 in concentrations of 25, 50 and 75 μM for 30 min until Ctr (MOI1) were added to the cells. Retro-1 was present during infection.
Cells with primary infection were lysed 24 h post infection (hpi). To obtain progeny infection compound treated cells were lysed 48 hpi and lysate was used to infect fresh HeLa229 cells. Progeny infection was lysed 24 hpi and analyzed together with primary infection samples by immunoblot. Chlamydial growth was detected with antibodies against chlamydial HSP60 protein and Actin was used as loading control (FIG. 6).

| SMILES | inhibition at 25 µM ([2]; 25 μM compound) [%] | Cellular protection at 75 μM (%) [2] [%] | also measured |
| --- | --- | --- | --- |
| CCCN1CC(=O)Nc2ccc(Br)cc2C1c1ccccc1 (stereo not drawn) [VP-184, 7-bromo-5-phenyl-4-propyl-1,3,4,5-tetrahydro-2H-benzo[e][1,4]diazepin-2-one] |  |  | effect on primary and progeny infection for Simkania [1]: inhibitor effect on primary and progeny infection; concentration at which maximal inhibition of Sn replication was observed [1]: 25 µM; effect on Sn inclusions (transmission electron microscopy) [1]: strongly reduced Sn inclusion formation, size, numbers and Sn replication |
| CN1C(=O)CN=C(c2ccccc2Cl)c2cc(Cl)ccc21 [HA200, 7-chloro-5-(2-chlorophenyl)-1-methyl-1,3-dihydro-2H-benzo[e][1,4]diazepin-2-one] | 47 |  |  |
| O=C1CN=C(c2ccccc2)c2cc(Br)cc(Br)c2N1 [HA061, 7,9-dibromo-5-phenyl-1,3-dihydro-2H-benzo[e][1,4]diazepin-2-one] | 57.8 |  |  |
| O=C1CNC(c2ccccc2)c2cc(Br)ccc2N1 (stereo not drawn) [VP174, 7-bromo-5-phenyl-1,3,4,5-tetrahydro-2H-benzo[e][1,4]diazepin-2-one] | 27.6 | 52.8 |  |
| CC1CCC(N2CC(=O)Nc3ccc(Br)cc3C2c2ccccc2)C1 (stereo not drawn) [HA280, 7-bromo-4-(3-methylcyclopentyl)-5-phenyl-1,3,4,5-tetrahydro-2H-benzo[e][1,4]diazepin-2-one] | 100 |  | Cellular protection at 25 μM (%) ([2]; 25 μM compound): full protection |
| O=C1CN(C2CCCC2)C(c2ccccc2)c2cc(Br)ccc2N1 (stereo not drawn) [HA229, 7-bromo-4-cyclopentyl-5-phenyl-1,3,4,5-tetrahydro-2H-benzo[e][1,4]diazepin-2-one] | 20.2 |  |  |
| O=C1CN=C(c2ccccc2)c2cc(Br)ccc2N1 [VP173, 7-bromo-5-phenyl-1,3-dihydro-2H-benzo[e][1,4]diazepin-2-one] | 61.5 | 100 | Cellular protection at 75 μM (%) ([2]; listed as VP 173): full protection |
| O=C1CN=C(c2ccccc2Cl)c2cc(Cl)ccc2N1 [HA197, 7-chloro-5-(2-chlorophenyl)-1,3-dihydro-2H-benzo[e][1,4]diazepin-2-one] | 90.6 | 84.3 |  |
| CCC(=O)N1CC(=O)Nc2ccc(Br)cc2C1c1ccccc1 (stereo not drawn) [Retro-1, 7-bromo-5-phenyl-4-propionyl-1,3,4,5-tetrahydro-2H-benzo[e][1,4]diazepin-2-one] | 26.5 | 2.4 | infectivity in the Ctr progeny (HSP60 immunoblot) [3]: significant reduced infectivity in the progeny; effect on primary and progeny infection for Simkania [1]: inhibitor effect on primary and progeny infection; concentration at which maximal inhibition of Sn replication was observed [1]: 75 µM; effect on Sn inclusions (transmission electron microscopy) [1]: inclusions were smaller |
